The values that follow come from ChEMBL document CHEMBL1141729, “Two new cytotoxic compounds from Tapirira guianensis” (J Nat Prod, 1998).

What all share (format): functional, cell-based
A short description of assay [1]: Cytotoxicity against human BC1 cells.
The next assay concerns LNCaP. The assay is described as follows: Cytotoxicity against human LNCAP cells.
Assay [2] in a line: Cytotoxicity against vinblastine-resistant human KBV1 cells. As to conditions: KB-V1.
In a further assay the test system is KB. In words: Cytotoxicity against human KB cells.
The subject of the next assay is Lu1. In words: Cytotoxicity against human Lu1 cells.
The nature of assay [3]: Cytotoxicity against vinblastine-resistant human KBV1 cells in presence of vinblastine. As to conditions: KB-V1.
Another assay concerns Col2. The assay is described as follows: Cytotoxicity against human Col2 cells.

SMILES strings stand for the structures. ≈ marks a conversion by molar mass, not a printed value.

Take `CCCCCC/C=C\CCCCCCCCCc1cc(O)ccc1O`: the 50% inhibitory concentration (IC50) in assay [1] was determined as 1.3 µg/mL (≈ 3.75 µM); in the assay on LNCaP it was 0.2 µg/mL (≈ 0.577 µM); in assay [2] it was 0.6 µg/mL (≈ 1.73 µM); with KB, 0.5 µg/mL (≈ 1.44 µM); in the assay with Lu1, 0.3 µg/mL (≈ 0.866 µM); in assay [3] it was 0.5 µg/mL. This compound yielded an IC50 in the assay with Col2 of 0.8 µg/mL (≈ 2.31 µM).
Consider `CCCCCC/C=C\CCCCCCCCC[C@]1(O)C=CC(=O)[C@@H](O)C1`, for which the concentration for half-maximal inhibition (IC50) in assay [1] amounted to 4.3 µg/mL (≈ 11.8 µM); in the assay on LNCaP, 0.3 µg/mL (≈ 0.823 µM); in assay [2], 4.2 µg/mL (≈ 11.5 µM); in the assay with KB, 1.5 µg/mL (≈ 4.11 µM); in the assay on Lu1 it was 4.4 µg/mL (≈ 12.1 µM); in assay [3], 4.1 µg/mL. In the assay with Col2, this compound gave an IC50 of 1.8 µg/mL (≈ 4.94 µM).
